Experimental data as given in ChEMBL document CHEMBL1817541, “Synthesis and Evaluation of the α-D-/α-L-Rhamnosyl and Amicetosyl Digitoxigenin Oligomers as Anti-tumor Agents” (ACS Med Chem Lett, 2011).

What was measured:
Format in all cases: functional
[1] = tested on: NCI-H522; test: Cytotoxicity against human NCI-H522 cells after 48 hrs by sulforhodamine B assay; conditions: NCI-H522, 48 h
[2] = tested on: NCI-H226; test: Cytotoxicity against human NCI-H226 cells after 48 hrs by sulforhodamine B assay; conditions: NCI-H226, 48 h
[3] = tested on: OVCAR-3; test: Cytotoxicity against human OVCAR3 cells after 48 hrs by sulforhodamine B assay; conditions: OVCAR-3, 48 h
[4] = tested on: SN12C; test: Cytotoxicity against human SN12C cells after 48 hrs by sulforhodamine B assay
[5] = tested on: TK-10; test: Cytotoxicity against human TK10 cells after 48 hrs by sulforhodamine B assay; conditions: TK-10, 48 h
[6] = tested on: SF-295; test: Cytotoxicity against human SF295 cells after 48 hrs by sulforhodamine B assay; conditions: SF-295, 48 h
[7] = tested on: A498; test: Cytotoxicity against human A498 cells after 48 hrs by sulforhodamine B assay; conditions: A498, 48 h
[8] = tested on: NCI-H460; test: Cytotoxicity against human NCI-H460 cell assessed as cell death at 50 nM after 12 hrs by Hoechst 33342/propidium iodide staining based fluorescence microscopy
[9] = tested on: HOP-62; test: Cytotoxicity against human HOP62 cells after 48 hrs by sulforhodamine B assay; conditions: HOP-62, 48 h
[10] = tested on: HCT-15; test: Cytotoxicity against human HCT15 cells after 48 hrs by sulforhodamine B assay; conditions: HCT-15, 48 h
[11] = tested on: MCF7; test: Cytotoxicity against human MCF7 cells after 48 hrs by sulforhodamine B assay; conditions: MCF7, 48 h
[12] = tested on: HOP-92; test: Cytotoxicity against human HOP92 cells after 48 hrs by sulforhodamine B assay; conditions: HOP-92, 48 h
[13] = tested on: Hs-578T; test: Cytotoxicity against human Hs578T cells after 48 hrs by sulforhodamine B assay
[14] = tested on: PC-3; test: Cytotoxicity against human PC3 cells after 48 hrs by sulforhodamine B assay; conditions: PC-3, 48 h
[15] = tested on: HT-29; test: Cytotoxicity against human HT-29 cells after 48 hrs by sulforhodamine B assay; conditions: HT-29, 48 h
[16] = tested on: A549; test: Cytotoxicity against human A549 cells after 48 hrs by sulforhodamine B assay; conditions: A549, 48 h
[17] = tested on: RPMI-8226; test: Cytotoxicity against human RPMI8226 cells after 48 hrs by sulforhodamine B assay; conditions: RPMI-8226, 48 h
[18] = tested on: UACC-62; test: Cytotoxicity against human UACC62 cells after 48 hrs by sulforhodamine B assay; conditions: UACC-62, 48 h
[19] = tested on: NCI-H460; test: Cytotoxicity against human NCI-H460 cell assessed as cell death at 10 nM after 12 hrs by Hoechst 33342/propidium iodide staining based fluorescence microscopy
[20] = tested on: NCI-H460; test: Cytotoxicity against human NCI-H460 cell assessed as cell death at 500 nM after 12 hrs by Hoechst 33342/propidium iodide staining based fluorescence microscopy
[21] = tested on: NCI-H23; test: Cytotoxicity against human NCI-H23 cells after 48 hrs by sulforhodamine B assay; conditions: NCI-H23, 48 h
[22] = tested on: NCI-H460; test: Cytotoxicity against human NCI-H460 cell assessed as cell death after 12 hrs by Hoechst 33342/propidium iodide staining based fluorescence microscopy; conditions: NCI-H460, 12 h
[23] = tested on: SK-MEL-28; test: Cytotoxicity against human SK-MEL-28 cells after 48 hrs by sulforhodamine B assay; conditions: SK-MEL-28, 48 h
[24] = tested on: 786-0; test: Cytotoxicity against human 786-0 cells after 48 hrs by sulforhodamine B assay; conditions: 786-0, 48 h
[25] = tested on: ACHN; test: Cytotoxicity against human ACHN cells after 48 hrs by sulforhodamine B assay
[26] = tested on: NCI-H460; test: Cytotoxicity against human NCI-H460 cells after 48 hrs by sulforhodamine B assay; conditions: NCI-H460, 48 h
[27] = tested on: Malme-3M; test: Cytotoxicity against human MALME-3M cells after 48 hrs by sulforhodamine B assay
[28] = tested on: COLO 205; test: Cytotoxicity against human COLO205 cells after 48 hrs by sulforhodamine B assay; conditions: COLO 205, 48 h
[29] = tested on: M14; test: Cytotoxicity against human M14 cells after 48 hrs by sulforhodamine B assay; conditions: M14, 48 h
[30] = tested on: SR; test: Cytotoxicity against human SR cells after 48 hrs by sulforhodamine B assay
[31] = tested on: SK-OV-3; test: Cytotoxicity against human SKOV3 cells after 48 hrs by sulforhodamine B assay; conditions: SK-OV-3, 48 h
[32] = tested on: NCI-H460; test: Induction of apoptosis in human NCI-H460 cells in at 50 nM after 12 hrs by Hoechst 33342/propidium iodide staining based fluorescence microscopy
[33] = tested on: SF-268; test: Cytotoxicity against human SF268 cells after 48 hrs by sulforhodamine B assay; conditions: SF-268, 48 h
[34] = tested on: NCI-H460; test: Cytotoxicity against human NCI-H460 cell assessed as cell death at 1 uM after 12 hrs by Hoechst 33342/propidium iodide staining based fluorescence microscopy
[35] = tested on: NCI-H322M; test: Cytotoxicity against human NCI-H322M cells after 48 hrs by sulforhodamine B assay
[36] = tested on: LOX IMVI; test: Cytotoxicity against human LOXIMVI cells after 48 hrs by sulforhodamine B assay
[37] = tested on: NCI-H460; test: Cytotoxicity against human NCI-H460 cells in serum free medium assessed as cell death at 10 uM after 12 hrs by Hoechst 33342/propidium iodide staining based fluorescence microscopy
[38] = tested on: SF-539; test: Cytotoxicity against human SF539 cells after 48 hrs by sulforhodamine B assay; conditions: SF-539, 48 h
[39] = tested on: MDA-MB-435; test: Cytotoxicity against human MDA-MB-435 cells after 48 hrs by sulforhodamine B assay; conditions: MDA-MB-435, 48 h
[40] = tested on: UO-31; test: Cytotoxicity against human UO31 cells after 48 hrs by sulforhodamine B assay; conditions: UO-31, 48 h
[41] = tested on: T47D; test: Cytotoxicity against human T47D cells after 48 hrs by sulforhodamine B assay
[42] = tested on: OVCAR-4; test: Cytotoxicity against human OVCAR4 cells after 48 hrs by sulforhodamine B assay; conditions: OVCAR-4, 48 h
[43] = tested on: SNB-19; test: Cytotoxicity against human SNB19 cells after 48 hrs by sulforhodamine B assay; conditions: SNB-19, 48 h
[44] = tested on: NCI-H460; test: Cytotoxicity against human NCI-H460 cell assessed as cell death at 100 uM after 12 hrs by Hoechst 33342/propidium iodide staining based fluorescence microscopy
[45] = tested on: KM12; test: Cytotoxicity against human KM12 cells after 48 hrs by sulforhodamine B assay; conditions: KM12, 48 h
[46] = tested on: NCI-H460; test: Cytotoxicity against human NCI-H460 cell assessed as cell death at 100 nM after 12 hrs by Hoechst 33342/propidium iodide staining based fluorescence microscopy
[47] = tested on: SW-620; test: Cytotoxicity against human SW620 cells after 48 hrs by sulforhodamine B assay; conditions: SW-620, 48 h
[48] = tested on: SK-MEL-5; test: Cytotoxicity against human SK-MEL-5 cells after 48 hrs by sulforhodamine B assay; conditions: SK-MEL-5, 48 h
[49] = tested on: OVCAR-8; test: Cytotoxicity against human OVCAR8 cells after 48 hrs by sulforhodamine B assay; conditions: OVCAR-8, 48 h
[50] = tested on: UACC-257; test: Cytotoxicity against human UACC257 cells after 48 hrs by sulforhodamine B assay; conditions: UACC-257, 48 h
[51] = tested on: MOLT-4; test: Cytotoxicity against human MOLT4 cells after 48 hrs by sulforhodamine B assay; conditions: MOLT-4, 48 h
[52] = tested on: DU-145; test: Cytotoxicity against human DU145 cells after 48 hrs by sulforhodamine B assay; conditions: DU-145, 48 h
[53] = tested on: EKVX; test: Cytotoxicity against human EKVX cells after 48 hrs by sulforhodamine B assay
[54] = tested on: MDA-MB-231; test: Cytotoxicity against human MDA-MB-231 cells after 48 hrs by sulforhodamine B assay; conditions: MDA-MB-231, 48 h
[55] = tested on: SNB-75; test: Cytotoxicity against human SNB75 cells after 48 hrs by sulforhodamine B assay; conditions: SNB-75, 48 h
[56] = tested on: U-251; test: Cytotoxicity against human U251 cells after 48 hrs by sulforhodamine B assay; conditions: U-251, 48 h

## C[C@H]1O[C@H](O[C@H]2CC[C@@]3(C)[C@H](CC[C@@H]4[C@@H]3CC[C@]3(C)[C@@H](C5=CC(=O)OC5)CC[C@]43O)C2)CC[C@@H]1O
[1]
  GI50: 0.0408 µM
[2]
  GI50: 0.168 µM
[3]
  GI50: 0.0478 µM
[4]
  GI50: 0.0409 µM
[5]
  GI50: 0.0463 µM
[6]
  GI50: 0.0716 µM
[7]
  GI50: 0.131 µM
[8]
  Activity: 19.63%
[9]
  GI50: 0.0564 µM
[10]
  GI50: 0.116 µM
[11]
  GI50: 0.0793 µM
[12]
  GI50: 0.128 µM
[13]
  GI50: 0.0261 µM
[14]
  GI50: 0.101 µM
[15]
  GI50: 0.097 µM
[16]
  GI50: 0.0306 µM
[17]
  GI50: 0.117 µM
[18]
  GI50: 0.168 µM
[19]
  Activity: 16.63%
[20]
  Activity: 58.34%
[21]
  GI50: 0.0427 µM
[22]
  IC50: 0.387 µM
[23]
  GI50: 0.186 µM
[24]
  GI50: 0.0582 µM
[25]
  GI50: 0.0348 µM
[26]
  GI50: 0.0351 µM
[27]
  GI50: 0.182 µM
[28]
  GI50: 0.348 µM
[29]
  GI50: 0.156 µM
[30]
  GI50: 0.0795 µM
[31]
  GI50: 0.194 µM
[32]
  Activity: 15.33%
[33]
  GI50: 0.0378 µM
[34]
  Activity: 89.05%
[35]
  GI50: 0.106 µM
[36]
  GI50: 0.0606 µM
[37]
  Activity: 100%
[38]
  GI50: 0.0438 µM
[39]
  GI50: 0.115 µM
[40]
  GI50: 0.057 µM
[41]
  GI50: 0.409 µM
[42]
  GI50: 0.191 µM
[43]
  GI50: 0.315 µM
[44]
  Activity: 100%
[45]
  GI50: 0.228 µM
[46]
  Activity: 24.88%
[47]
  GI50: 0.0526 µM
[48]
  GI50: 0.0371 µM
[49]
  GI50: 0.0767 µM
[50]
  GI50: 0.157 µM
[51]
  GI50: 0.0353 µM
[52]
  GI50: 0.0305 µM
[53]
  GI50: 0.0621 µM
[54]
  GI50: 0.392 µM
[55]
  GI50: 0.099 µM
[56]
  GI50: 0.0353 µM
